This is an account of results in ChEMBL document CHEMBL3098094, “Synthesis and biological evaluation of novel N-substituted 1H-dibenzo[a,c]carbazole derivatives of dehydroabietic acid as potential antimicrobial agents” (2014).

Values after ≈ are worked out from the molar mass of the structure shown.

Holding throughout (type): functional
One assay relates to Candida tropicalis. Nature of the assay: Antimicrobial activity against Candida tropicalis CGMCC2.3967 after 48 hrs by twofold serial microdilution method. Conditions: CGMCC2.3967, 48 h. On the technique in general: Dilution methods test growth across graded concentrations, often in twofold steps.
The test system of a further assay is Candida albicans. Nature of the assay: Antimicrobial activity against Candida albicans CGMCC2.2086 after 48 hrs by twofold serial microdilution method. Conditions: CGMCC2.2086, 48 h.
Another assay has as its system Aspergillus niger. Nature of the assay: Antimicrobial activity against Aspergillus niger CGMCC3.316 after 48 hrs by twofold serial microdilution method. As to conditions: CGMCC3.316, 48 h.
The subject of the next assay is Pseudomonas fluorescens. Nature of the assay: Antimicrobial activity against Pseudomonas fluorescens CGMCC1.1828 after 24 hrs by twofold serial microdilution method. Conditions: CGMCC1.1828, 24 h.
The test system of another assay is Staphylococcus aureus. Nature of the assay: Antimicrobial activity against Staphylococcus aureus CGMCC1.1361 after 24 hrs by twofold serial microdilution method. As to conditions: CGMCC1.1361, 24 h.
Another assay relates to Escherichia coli. Description: Antimicrobial activity against Escherichia coli CGMCC1.1571 after 24 hrs by twofold serial microdilution method. As to conditions: CGMCC1.1571, 24 h.
The next assay deals with Bacillus subtilis. Nature of the assay: Antimicrobial activity against Bacillus subtilis CGMCC1.1162 after 24 hrs by twofold serial microdilution method. Conditions: CGMCC1.1162, 24 h.

As usually defined, the MIC is the lowest concentration found to suppress growth. Read a low MIC as inhibition by little substance.

On to `COC(=O)[C@]1(C)CCC[C@]2(C)c3ccc(C(C)C)cc3-c3c(c4ccccc4n3CCN3CCN(C)CC3)[C@@H]12`, for which the minimal inhibitory concentration (MIC) in the assay with Candida tropicalis was found to be 7.8 µg/mL (≈ 14.8 µM); in the assay on Candida albicans, 7.8 µg/mL (≈ 14.8 µM); in the assay with Aspergillus niger it was 7.8 µg/mL (≈ 14.8 µM); against Pseudomonas fluorescens it was 7.8 µg/mL (≈ 14.8 µM); against Staphylococcus aureus, 1.9 µg/mL (≈ 3.6 µM); in the assay on Escherichia coli, 15.6 µg/mL (≈ 29.6 µM). The same molecule yielded a minimal inhibitory concentration (MIC) against Bacillus subtilis of 3.9 µg/mL (≈ 7.39 µM).
